Test results published in patent US12312631B1, “High-throughput multiplexed sensitivity and resistance assay” (SAGEMEDIC CORPORATION, priority 2022, dated 2025).
Like-named read-outs stand apart in the source and are kept apart here.

Experiments:
[1] = 2% to 4% formalin
A549 cells [2] = assay: ATP release into extracellular fluid or after lysis buffer, with or without Triton X, after PFA; type: cell-based
Procedure: In a factorial design, the cells were a) treated with 0%, 0.2%, or 1% PFA, and b) treated with or without 0.5% Triton X. ATP was then measured either from the extracellular fluids or within the wells after the use of a cell lysis buffer.
One out of 3 wells were incubated with 0%, 0.2%, and 1% PFA for 15 minutes and PFA was washed out 3 times with PBS. Half of the wells were then treated with 0.5% Triton X for 10 minutes and the other half received no Triton. The extracellular fluid from half of the 0.5% Triton X treated wells was then transferred to another well-plate and ATP was measured using a luciferin/luciferase complex. The other half of the 0.5% Triton X treated wells were first treated with a lysis buffer and then ATP was measured using the same luciferin/luciferase complex.

A549 cells [3] = conditions: 2% or 4% PFA for 15 min, thoroughly washed out
Procedure: An experiment was therefore conducted to see what if any effect PFA had on cellular ATP content and whether it would still be possible to detect ATP in fixed tissue/cells. Four groups of cells were tested: • Group 1 was not pretreated with PFA (control). • Group 2 was treated with 2% PFA. • Group 3 was pretreated with 2% PFA that was then washed out. • Group 4 was pretreated with 4% PFA that was then washed out.
The experiment was conducted as follows. For each group, A549 cells (Catalog No. CCL-185, ATCC, Manassas, VA, USA) were plated in 96-well plates (200 μl/well) with 8 replicates of 1,000 cells in 50 μl cell culture medium per well (DMEM/F12 plus 10% human serum). Cells in group 1, the control group, was not treated with PFA. Cells in groups 2, 3, and 4 were incubated for 15 min. with 2%, 2%, and 4% PFA, respectively. PFA remained in the wells of group 2 and PFA was removed from groups 3 and 4 by washing 3 times with 100 μl Cell culture medium. Luciferase catalyzed ATP luminescence was measured as per CellTiter-Glo 3D manufacturer's instructions.
Luminescence was measured with a BioTek Synergy LX plate reader (Agilent, Santa Clara, CA, U.S.A.) and calculations were performed to quantify, measure, and/or correlate ATP level with cell viability.
We also used relative luminescence unit (RLU) as arbitrary units to calculate ATP level to cell viability.

luciferase = tested on: luciferase
Procedure: We assessed four groups of A549 cells: with 0.0625% PFA, 0.25% PFA, 1% PFA, and 4% PFA, each of them at 0%, 1%, 5%, or 25% of human serum. For each group, A549 cells were plated in 96 well plates with 4 replicates of 1,000 cells at 100 μl per well. The cell culture medium was DMEM/F12 plus 10% human serum. Luciferase-catalyzed ATP luminescence was then measured using the CellTiter-Glo assay per manufacturer's instructions.
A combination of PFA and serum mixture was then created using a 4×4 factorial design of 0.0625%, 0.25%, 1%, or 4% of PFA, and 0%, 1%, 5%, or 25% of human serum, and incubated for 15 min at room temperature. The mixture was then added to the wells and a second round of RLU measurements were taken within 5 min.

A549 cells [4] = tested on: A549 cells
Procedure: Furthermore, since serum contains proteins, we wanted to know whether incubating and washing with serum could neutralize any potentially residual effect of PFA on ATP measurements. Thus, we created a 4×4 factorial design to expose the cells with 0.0625%, 0.25%, 1%, or 4% of PFA and 0%, 1%, 5%, or 25% of human serum.
For this experiment, A549 cells were plated in 96-well plates with 4 replicates of in 100 μl per well (cell culture medium was DMEM/F12 plus 10% human serum). Cells were fixed with the PFA concentrations for 5 min and washed 3× with phosphate-buffered saline (PBS).
The cells were then incubated at various serum concentrations for 10 min and then washed twice with PBS. Finally, luciferase catalyzed ATP luminescence was measured as per manufacturer's instructions.

C=O [formalin]
ATP still detectable in lysed cells after fixation [1]: almost half

Triton X
ATP release (A549 cells [2]; 0.5% Triton X alone for 10 minutes, no PFA, RLUs similar to lysis buffer): complete ATP release

paraformaldehyde [PFA]
ATP luminescence compared with the control group (A549 cells [3]): less than half of the control group
ATP released into the extracellular fluid (A549 cells [2]; 0.2% and 1% PFA, then 0.5% Triton X, same effect after cell lysis buffer): inhibited in a dose-dependent manner
ATP leakage into the extracellular fluid (A549 cells [2]; 0.2% or 1% PFA, without Triton X): neither 0.2% nor 1% PFA lead to some ATP leakage
luciferase activity blocked (luciferase; 1% PFA): about 90%
luciferase activity blocked (luciferase; 4% PFA): almost completely blocked
change of RLUs (luciferase; up to 0.25% PFA added to the CellTiter-Glo solution): did not change the RLUs
RLU (ATP luminescence) Avg. (A549 cells [4]; PFA 0.06%, average over serum levels): 47,729 RLU
RLU (ATP luminescence) (A549 cells [4]; PFA 0.06%, serum 0%): 39,815 RLU
RLU (ATP luminescence) (A549 cells [4]; PFA 0.06%, serum 1%): 46,022 RLU
RLU (ATP luminescence) (A549 cells [4]; PFA 0.06%, serum 5%): 51,674 RLU
RLU (ATP luminescence) (A549 cells [4]; PFA 0.06%, serum 25%): 53,405 RLU
RLU (ATP luminescence) Avg. (A549 cells [4]; PFA 0.25%, average over serum levels): 58,470 RLU
RLU (ATP luminescence) (A549 cells [4]; PFA 0.25%, serum 0%): 44,249 RLU
RLU (ATP luminescence) (A549 cells [4]; PFA 0.25%, serum 1%): 61,899 RLU
RLU (ATP luminescence) (A549 cells [4]; PFA 0.25%, serum 5%): 59,651 RLU
RLU (ATP luminescence) (A549 cells [4]; PFA 0.25%, serum 25%): 68,082 RLU
RLU (ATP luminescence) Avg. (A549 cells [4]; PFA 1%, average over serum levels): 40,598 RLU
RLU (ATP luminescence) (A549 cells [4]; PFA 1%, serum 0%): 38,892 RLU
RLU (ATP luminescence) (A549 cells [4]; PFA 1%, serum 1%): 45,576 RLU
RLU (ATP luminescence) (A549 cells [4]; PFA 1%, serum 5%): 34,194 RLU
RLU (ATP luminescence) (A549 cells [4]; PFA 1%, serum 25%): 43,731 RLU
RLU (ATP luminescence) Avg. (A549 cells [4]; PFA 4%, average over serum levels): 26,464 RLU
RLU (ATP luminescence) (A549 cells [4]; PFA 4%, serum 0%): 22,097 RLU
RLU (ATP luminescence) (A549 cells [4]; PFA 4%, serum 1%): 34,860 RLU
RLU (ATP luminescence) (A549 cells [4]; PFA 4%, serum 5%): 23,912 RLU
RLU (ATP luminescence) (A549 cells [4]; PFA 4%, serum 25%): 24,987 RLU
RLU (ATP luminescence) Avg. (A549 cells [4]; average over PFA concentrations, serum 0%): 36,263 RLU
RLU (ATP luminescence) Avg. (A549 cells [4]; average over PFA concentrations, serum 1%): 47,089 RLU
RLU (ATP luminescence) Avg. (A549 cells [4]; average over PFA concentrations, serum 5%): 42,358 RLU
RLU (ATP luminescence) Avg. (A549 cells [4]; average over PFA concentrations, serum 25%): 47,551 RLU
RLU (ATP luminescence) Avg. (A549 cells [4]; average over all PFA concentrations and serum levels): 43,315 RLU
